{"source": "patent US7071206B2", "about": "“Agents for treating neurodegenerative disorders” (Medivation, Inc., priority 1995, dated 2006)", "tested_on": "patients suffering from Alzheimer's disease", "experiment": "Clinical trial of dimebon tablets, inventors' scale (E. E. Bukatina et al.; 0 = absence of a symptom, 4 = greatest manifestation)", "type": "in vivo, human", "procedure": "The test was carried out under the direct supervision by two of the inventors, namely E. E. Bukatina and V. Grigorieva, in 14 patients who agreed to take part in the tests, 13 of whom lived in a boarding house for senile persons and one patient lived with their family.\nAlzheimer's disease was diagnosed on the basis of criteria ICD-10 NINCDS ADRDA.\nDimebon in the form of tablets (comprising 10 mg of dimebon, 30 mg of lactose, 5 mg of magnesium stearate was prescribed for oral administration in a dose of 0.02 g three to times a day. The patients living in the boarding house received dimebon for 58 days. A patient (observation 14) who was under outpatient observation continued taking the agent for a month after the completion of the tests.\nBefore the treatment with dimebon, and at 4 and 8 weeks after treatment the patients were examined according to Hazegawa's scale and the inventors' scale (“Social and Clinical Psychiatry”, 1992, No.4, pp.29–37) which includes the following indexes: (1) orientation in locality, time, immediate surroundings and one's own personality; (2) orientation in space; (3) memory for the past; (4) memory for the present; (5) “life in the past”; (6) (a) articulation, (b) difficulty in finding words, and distortion of words; (c) naming of objects; (d) following instructions; (7) concentration (of attention); (8) an affective sphere; (a) high spirits, (b) low spirits; (9) delirium; (10) hearing hallucinations; (11) visual hallucinations; (12) senile or senile-like confusion (when motion anxiety is accompanied by the revival of the past experience); (13) irritability; (14) anxiety; (15) asthenia; (16) headaches; (17) dizziness; (18) tearfulness; (19) spontaneous activity; (20) elementary self-service; and (21 control of sphincters.\nAccording to the Hazegawa's scale, the 0 score indicates the poorest result; on the contrary, according to the inventors' scale, the 0 score indicates the absence of a symptom 4 score indicates the greatest manifestation thereof. […] Before the therapy was started, the patients had been independently examined by two doctors who used the inventors' scale. The examination during the treatment was carried out by the doctors using both the scales. The evaluation according to all the inventors' scale points during all the tests and their variations during the treatment with dimebon are given in the Appendix.\nAccording to the inventors' scale, the degree of the disturbance if the cognitive functions was determined by a sum of evaluations according to the first 5 scale points reflecting the condition of memory, orientation and relation with the reality. The disturbance of speech was dealt with separately and was determined by a sum of evaluations according to items 6b-6d.\nBoth absolute evaluations of the signs under investigation (the evaluation prior to treatment is a mean evaluation of the two examinations) and variations in them were analysed in the course of therapy. In doing so, only those changes that were beyond the range of evaluations obtained in two pre-treatment examinations were taken into consideration.\nThe test results reflected the condition of the patients at the time of the examination. Any changes in the metal state observed in the interval between the tests and disappearing by the moment of examination according to the scale were described in the section “Clinical Observations”.\nThe statistical data processing was carried out by means of Student's t-test and Fisher's “Fi” criterion.", "key": {"[1]": {"settings": "after 8 weeks vs two examinations prior to treatment, + improvement, − deterioration"}, "[2]": {"settings": "after 8 weeks, mean of 14 patients"}, "[3]": {"settings": "change at 4 weeks vs K1, K2, per patient, listed as dimebon"}}, "note": "Where “and” joins values, the source holds several entries; their conditions need not be identical. Equal entries are not always repeated."}
{"smiles": "Cc1ccc2c(c1)c1c(n2CCc2ccc(C)nc2)CCN(C)C1", "note": "[No. 10, 2,8-dimethyl-5-[2-(6-methyl-3-pyridyl)ethyl]-2,3,4,5-tetrahydro-1H-pyrido[4,3-b]indole]", "values": [{"measurement": "Item 20 (elementary self-service): mean value", "setting": "after 4 weeks, mean of 14 patients", "result": "0.07 +/− 0.07 scores"}, {"measurement": "mean score of tearfulness", "setting": "after 8 weeks", "result": "0±0.0"}, {"measurement": "number of patients with signs of aggravation of depression", "setting": "after 8 weeks", "result": "One"}, {"measurement": "tearfulness", "setting": "after 8 weeks", "result": "not a single female patient suffered from tearfulness"}, {"measurement": "Item 1 (orientation in locality, time, immediate surroundings and one's own personality): change during the course of the therapy", "setting": "[1]", "result": "+0.18 +/− 0.08 scores"}, {"measurement": "Item 2 (orientation in space): change during the course of the therapy", "setting": "[1]", "result": "+0.11 +/− 0.07 scores"}, {"measurement": "Item 3 (memory for the past): change during the course of the therapy", "setting": "[1]", "result": "+0.29 +/− 0.1 scores"}, {"measurement": "Item 4 (memory for the present): change during the course of the therapy", "setting": "[1]", "result": "_0.29 +/− 0.08 scores"}, {"measurement": "Item 5 (life in the past): change during the course of the therapy", "setting": "[1]", "result": "_0.29 +/− 0.1 scores"}, {"measurement": "Item 6a (speech): change during the course of the therapy", "setting": "[1]", "result": "+0.14 +/− 0.08 scores"}, {"measurement": "Item 6b (difficulty in finding words, and distortion of words): change during the course of the therapy", "setting": "[1]", "result": "−0.04 +/− 0.03 scores"}, {"measurement": "Item 6g (speech): change during the course of the therapy", "setting": "[1]", "result": "−0.07 +/− 0.18 scores"}, {"measurement": "Item 7 (concentration of attention): change during the course of the therapy", "setting": "[1]", "result": "−0.04 +/− 0.06 scores"}, {"measurement": "Item 8b (low spirits): change during the course of the therapy", "setting": "[1]", "result": "+0.43 +/− 0.2 scores"}, {"measurement": "Item 9 (delirium): change during the course of the therapy", "setting": "[1]", "result": "+0.25 +/− 0.17 scores"}, {"measurement": "Item 13 (irritability): change during the course of the therapy", "setting": "[1]", "result": "+0.36 +/− 0.16 scores"}, {"measurement": "Item 14 (anxiety): change during the course of the therapy", "setting": "[1]", "result": "+0.07 +/− 0.09 scores"}, {"measurement": "Item 15 (asthenia): change during the course of the therapy", "setting": "[1]", "result": "0 +/− 0 scores"}, {"measurement": "Item 16 (headaches): change during the course of the therapy", "setting": "[1]", "result": "+0.21 +/− 0.1 scores"}, {"measurement": "Item 17 (dizziness): change during the course of the therapy", "setting": "[1]", "result": "−0.18 +/− 0.22 scores"}, {"measurement": "Item 18 (tearfulness): change during the course of the therapy", "setting": "[1]", "result": "+0.21 +/− 0.15 scores"}, {"measurement": "Item 19 (spontaneous activity): change during the course of the therapy", "setting": "[1]", "result": "+0.04 +/− 0.11 scores"}, {"measurement": "Item 20 (elementary self-service): change during the course of the therapy", "setting": "[1]", "result": "0 +/− 0.1 scores"}, {"measurement": "Item 1 (orientation in locality, time, immediate surroundings and one's own personality): mean value", "setting": "[2]", "result": "1.57 +/− 0.23 scores"}, {"measurement": "Item 2 (orientation in space): mean value", "setting": "[2]", "result": "0.25 +/− 0.13 scores"}, {"measurement": "Item 3 (memory for the past): mean value", "setting": "[2]", "result": "1.93 +/− 0.24 scores"}, {"measurement": "Item 4 (memory for the present): mean value", "setting": "[2]", "result": "1.86 +/− 0.23 scores"}, {"measurement": "Item 5 (life in the past): mean value", "setting": "[2]", "result": "1.57 +/− 0.27 scores"}, {"measurement": "Item 6a (speech): mean value", "setting": "[2]", "result": "0.54 +/− 0.21 scores"}, {"measurement": "Item 6b (difficulty in finding words, and distortion of words): mean value", "setting": "[2]", "result": "0.39 +/− 0.2 scores"}, {"measurement": "Item 6g (speech): mean value", "setting": "[2]", "result": "0.54 +/− 0.19 scores"}, {"measurement": "Item 7 (concentration of attention): mean value", "setting": "[2]", "result": "1.75 +/− 0.3 scores"}, {"measurement": "Item 8b (low spirits): mean value", "setting": "[2]", "result": "0.46 +/− 0.14 scores"}, {"measurement": "Item 9 (delirium): mean value", "setting": "[2]", "result": "0.5 +/− 0.19 scores"}, {"measurement": "Item 13 (irritability): mean value", "setting": "[2]", "result": "0.14 +/− 0.09 scores"}, {"measurement": "Item 14 (anxiety): mean value", "setting": "[2]", "result": "0.18 +/− 0.1 scores"}, {"measurement": "Item 15 (asthenia): mean value", "setting": "[2]", "result": "0.04 +/− 0.03 scores"}, {"measurement": "Item 16 (headaches): mean value", "setting": "[2]", "result": "0.64 +/− 0.24 scores"}, {"measurement": "Item 17 (dizziness): mean value", "setting": "[2]", "result": "0.68 +/− 0.25 scores"}, {"measurement": "Item 18 (tearfulness): mean value", "setting": "[2]", "result": "0.14 +/− 0.14 scores"}, {"measurement": "Item 19 (spontaneous activity): mean value", "setting": "[2]", "result": "1.18 +/− 0.27 scores"}, {"measurement": "Item 20 (elementary self-service): mean value", "setting": "[2]", "result": "0.14 +/− 0.4 scores"}, {"measurement": "impairments according to the first 5 scale points (cognitive functions)", "setting": "both after 4-week and 8-week treatment", "result": "lack of impairments"}, {"measurement": "20. Elementary self-service, Changes (4 weeks)", "setting": "change at 4 weeks vs K1, K2, per patient", "result": "+1"}, {"measurement": "2. Orientation in space, Changes (4 weeks)", "setting": "[3]", "result": "−0.5"}, {"measurement": "5. Life in the past, Changes (4 weeks)", "setting": "[3]", "result": "+0.5 (2×) and +1"}, {"measurement": "6c. Naming of objects, Changes (4 weeks)", "setting": "[3]", "result": "+0.5 and −1"}, {"measurement": "7. Concentration, Changes (4 weeks)", "setting": "[3]", "result": "+0.5 and −0.5"}, {"measurement": "8b. Lower spirits, Changes (4 weeks)", "setting": "[3]", "result": "+0.5 (3×) and +2 and +1"}, {"measurement": "9. Delirium, Changes (4 weeks)", "setting": "[3]", "result": "+0.5 and +1 and −0.5"}, {"measurement": "13. Irritability, Changes (4 weeks)", "setting": "[3]", "result": "+1.5 and +1 (2×) and +0.5"}, {"measurement": "14. Anxiety, Changes (4 weeks)", "setting": "[3]", "result": "+0.5 and +1 and −1 (2×)"}, {"measurement": "15. Asthenia, Changes (4 weeks)", "setting": "[3]", "result": "−0.5 and −1"}, {"measurement": "16. Headache, Changes (4 weeks)", "setting": "[3]", "result": "+1 (2×) and +2 (2×) and −1.5"}, {"measurement": "17. Dizziness, Changes (4 weeks)", "setting": "[3]", "result": "+1 and −1 and −2"}, {"measurement": "18. Tearfulness, Changes (4 weeks)", "setting": "[3]", "result": "+2 and 0"}, {"measurement": "6d. Performing instructions, Changes (4 weeks)", "setting": "[3]", "result": "−1 and +1 (2×)"}, {"measurement": "1. Orientation in locality and time, Changes (4 weeks)", "setting": "change at 4 weeks vs K1, K2 prior to treatment, + improvement, − deterioration, — no change, per patient, listed as dimebon", "result": "+1 and +0.5"}, {"measurement": "1. Orientation in locality and time, Changes (8 weeks)", "setting": "change at 8 weeks vs K1, K2, + improvement, − deterioration, — no change, per patient, listed as dimebon", "result": "+1 and +0.5 (3×)"}]}
